The text below walks through data of patent publication US5416118A, “Bicyclic amides as inhibitors of acyl-coenzyme A: cholesterol acyl transferase” (Schering Corporation, priority 1993, dated 1995).

The subject of one assay is cholesteryl esters. Nature of the assay: In Vivo Assay of Hypolipidemic Agents Using the Hyperlipidemic Hamster. As to conditions: Mesocricetus auratus, po, 168 h, oral gavage once daily, 7 days, versus control, read-out: % Reduction in cholesteryl esters; for change in vivo at 50 mg/kg: 50 mpk. The method, then: In Vivo Assay of Hypolipidemic Agents Using the Hyperlipidemic Hamster
Hamsters are separated into groups of six and given a control cholesterol diet (Pudna Chow #5001 containing 0.5% cholesterol) for seven days. Diet consumption is monitored to determine dietary cholesterol exposure in the face of test compounds. The animals are dosed with the test compound once daily beginning with the initiation of diet. Dosing is by oral gavage of 0.2 mL of corn oil alone (control group) or solution (or suspension) of test compound in corn oil. All animals moribund or in poor physical condition are euthanized. After seven days, the animals are anesthetized by […] of ketamine and sacrificed by decapitation. Blood is collected into vacutainer tubes containing EDTA for plasma lipid analysis and the liver excised for tissue lipid analysis. Data is reported as percent reduction of lipid versus control.
(§1) Using the assay methods described above, the compounds of Examples 1-9 were tested for in vitro ACAT inhibitory activity and for the ability to lower the level of cholesteryl esters in vivo.

The next assay deals with ACAT. Nature of the assay: ACAT Assay (in vitro). To be noted: dose = 10 μM; rat liver microsomes. Type of assay: biochemical. The method, then:
This assay measures the activity of ACAT by measuring the ACAT-mediated transfer of tritiated oleic acid from acyl-CoA to cholesterol to give labelled cholesterol oleate. Rat liver microsomes are used as the source of ACAT. Assays are performed in round bottom microtiterplates using a total incubation volume of 50 μL. Each incubation well receives 10 μL assay buffer (0.5M KHPO4, 10 μM dithiothreitol, pH 7.4), 7.5 μL of 40 mg/mL BSA (Bovine Serum Albumin) and 12.5 μg of microsomal protein. The test compound (in sufficient amount to bring the final concentration to from 0.1 to 25 μM), reference compound, or vehicle control is added and the final volume brought to 47 μL. The microtiterplate is then floated on the surface of a 37° C. water bath for fifteen minutes. Incubations are started by the addition of 3 μL ^3 H-acyl CoA (1 μCi/well, final concentration of 10 μM acyl CoA). The plate is then returned to the water bath for 15 minutes. The incubations are then terminated by application of 15 μL from each incubation to individual lanes on a thin layer plate (Silica Gel GF 20×20 cm). Standards are applied to several lanes so that the cholesterol ester band can be identified. After drying, the plates are eluted with 90:10:1 petroleum ether:ether:HOAc. The standards are visualized via iodine vapor, and the regions corresponding to cholesterol ester are scraped into 7 mL scintillation vials. 4 mL of scintillant are added to each vial, and the radioactivity quantified. Background count is determined by the boiled controls. Full activity is determined by activity in the presence of vehicle. The percent inhibition is calculated by subtracting the background from both control and test samples, and the test value is calculated as a percentage of the control. For IC50 determinations, the inhibition is plotted against drug doses on a log scale and the concentration at which 50% inhibition is obtained is determined.
as §1
In general terms: Microsomes from liver hold many membrane-bound enzymes, among them those of drug oxidation.

Where only a bound is given, the exact number is not on record here.

On to `COc1ccc([C@@H]2CCc3ccccc3[C@@H]2NC(=O)C(c2ccccc2)c2ccccc2)cc1` (relative stereo) [Example 1, cis-N-[-2-(4'-methoxyphenyl)-1,2,3,4-tetrahydronaphthalen-1-yl]-α-phenylbenzeneacetamide], for which the change in vivo at 50 mg/kg in the assay with cholesteryl esters was determined as 0%.

On to `COc1ccccc1[C@H]1CCc2ccccc2[C@@H]1NC(=O)C(c1ccccc1)c1ccccc1` (relative stereo) [Example 1B], for which the change in vivo at 50 mg/kg in the assay on cholesteryl esters was found to be 21%.

Consider `COc1cccc([C@H]2CCc3ccccc3[C@@H]2NC(=O)C(c2ccccc2)c2ccccc2)c1` (relative stereo) [Example 1D], for which the change in vivo at 50 mg/kg with cholesteryl esters is 0%.

Take `O=C(N[C@H]1c2ccccc2OC[C@H]1c1ccccc1)C(c1ccccc1)c1ccccc1` (relative stereo) [Example 1E]: in the assay on ACAT, the “ACAT % Inhibition” value is given as 40%. Further, in the assay on cholesteryl esters, the change in vivo at 50 mg/kg was 0%.

Turning to `CCCCCCCCCC(C)(C)C(=O)N[C@H]1c2ccccc2CC[C@@H]1c1ccc(OC)cc1` (relative stereo) [Example 1F], the “ACAT % Inhibition” value with ACAT is reported as 36%. The change in vivo at 50 mg/kg with cholesteryl esters amounted to 0%.

As to `COc1ccc([C@H]2CCc3ccccc3[C@@H]2NC(=O)C(c2ccccc2)c2ccccc2)cc1` (relative stereo) [Example 1G], the change in vivo at 50 mg/kg with cholesteryl esters was determined as 0%.

In the case of `COc1ccc([C@@H]2CCCc3ccccc3[C@@H]2NC(=O)C(c2ccccc2)c2ccccc2)cc1` (relative stereo) [Example 1H], the “ACAT % Inhibition” value in the assay on ACAT is 84%. For the same compound, the change in vivo at 50 mg/kg in the assay on cholesteryl esters was 0%.

For `COc1ccc([C@H]2CCCc3ccccc3[C@@H]2NC(=O)C(c2ccccc2)c2ccccc2)cc1` (relative stereo) [Example 1I], the “ACAT % Inhibition” value in the assay on ACAT stood at 63%.

Take `O=C(N[C@H]1c2ccccc2CC[C@@H]1c1ccncc1)C(c1ccccc1)c1ccccc1` (relative stereo) [Example 1J]: in the assay on cholesteryl esters, the change in vivo at 50 mg/kg was -39%.

For the compound `O=C(N[C@H]1c2ccccc2OC[C@@H]1c1ccccc1)C(c1ccccc1)c1ccccc1` (relative stereo) [Example 1M], the “ACAT % Inhibition” value with ACAT was determined as 85%. The change in vivo at 50 mg/kg in the assay with cholesteryl esters turned out to be 0%.

As for `COc1ccc([C@H]2CCc3ccc(OC)cc3[C@@H]2NC(=O)C(c2ccccc2)c2ccccc2)cc1` (relative stereo) [Example 1R], the change in vivo at 50 mg/kg in the assay on cholesteryl esters was 0%.

On to `COc1ccc([C@@H]2Cc3ccccc3[C@@H]2NC(=O)C(c2ccccc2)c2ccccc2)cc1` (relative stereo) [Example 2, cis-N-[2-(4'-methoxyphenyl)indanyl]-α-phenylbenzeneacetamide], for which the “ACAT % Inhibition” value in the assay with ACAT turned out to be 96%. In addition, the change in vivo at 50 mg/kg in the assay with cholesteryl esters was -17%.

With `COc1cccc([C@@H]2Cc3ccccc3[C@@H]2NC(=O)C(c2ccccc2)c2ccccc2)c1` (relative stereo) [Example 2A], the “ACAT % Inhibition” value in the assay on ACAT stood at 99%. The change in vivo at 50 mg/kg in the assay with cholesteryl esters worked out at 0%.

As to `COc1cccc([C@H]2Cc3ccccc3[C@@H]2NC(=O)C(c2ccccc2)c2ccccc2)c1` (relative stereo) [Example 2B], in the assay on ACAT, the “ACAT % Inhibition” value was determined as 94%.

For `O=C(N[C@H]1c2ccccc2C[C@H]1c1cccc([N+](=O)[O-])c1)C(c1ccccc1)c1ccccc1` (relative stereo) [Example 2C], in the assay with ACAT, the “ACAT % Inhibition” value came to 99%. In the assay on cholesteryl esters, the change in vivo at 50 mg/kg was 0%.

As for `O=C(N[C@H]1c2ccccc2C[C@@H]1c1cccc([N+](=O)[O-])c1)C(c1ccccc1)c1ccccc1` (relative stereo) [Example 2D], in the assay with ACAT, the “ACAT % Inhibition” value is recorded as 90%.

On to `COc1ccc([C@H]2Cc3ccccc3[C@@H]2NC(=O)C(c2ccccc2)c2ccccc2)cc1` (relative stereo) [Example 2F], for which the “ACAT % Inhibition” value in the assay on ACAT worked out at 19%. The change in vivo at 50 mg/kg with cholesteryl esters is 0%.

Turning to `O=C(N[C@H]1c2ccccc2C[C@H]1c1ccc([N+](=O)[O-])cc1)C(c1ccccc1)c1ccccc1` (relative stereo) [Example 2I], in the assay with ACAT, the “ACAT % Inhibition” value was found to be 51%.

Turning to `O=C(N[C@H]1c2ccccc2C[C@@H]1c1ccc([N+](=O)[O-])cc1)C(c1ccccc1)c1ccccc1` (relative stereo) [Example 2J], the “ACAT % Inhibition” value in the assay on ACAT is -12%.

In the case of `CCCCCCCC/C=C\CCCCCCCC(=O)N[C@H]1c2ccccc2CC[C@H]1c1ccccc1` (relative stereo) [Example 2L], the “ACAT % Inhibition” value with ACAT is on record as 66%.

As for `CCCCCCCC/C=C\CCCCCCCC(=O)N[C@H]1c2ccccc2OC[C@@H]1c1ccccc1` (relative stereo) [Example 2O], in the assay with ACAT, the “ACAT % Inhibition” value was 87%.

Regarding `Nc1ccc([C@H]2CCc3ccccc3[C@@H]2NC(=O)C(c2ccccc2)c2ccccc2)cc1` (relative stereo) [Example 2P], in the assay with cholesteryl esters (25 mpk), the change in vivo at 25 mg/kg is -15%.

For `COc1ccc2c(c1)[C@H](NC(=O)C(c1ccccc1)c1ccccc1)[C@H](c1ccccc1)C2` (relative stereo) [Example 2Q], the “ACAT % Inhibition” value in the assay on ACAT worked out at 16%.

As to `COc1ccc2c(c1)[C@H](NC(=O)C(c1ccccc1)c1ccccc1)[C@@H](c1ccccc1)C2` (relative stereo) [Example 2T], the “ACAT % Inhibition” value in the assay on ACAT was 15%.

Take `O=C(N[C@@H]1c2ccccc2CC[C@H]1c1ccccc1O)C(c1ccccc1)c1ccccc1` (relative stereo) [Example 3A]: the change in vivo at 50 mg/kg in the assay with cholesteryl esters is 0%.

In the case of `O=C(N[C@@H]1c2c(O)cccc2CC[C@H]1c1ccccc1)C(c1ccccc1)c1ccccc1` (relative stereo) [Example 3CC], the change in vivo at 50 mg/kg in the assay on cholesteryl esters is -20%.

For `O=C(N[C@@H]1c2ccccc2CCC[C@H]1c1ccc(O)cc1)C(c1ccccc1)c1ccccc1` (relative stereo) [Example 3J], in the assay with cholesteryl esters, the change in vivo at 50 mg/kg was -61%.

In the case of `O=C(N[C@@H]1c2ccc(O)cc2C[C@H]1c1ccccc1)C(c1ccccc1)c1ccccc1` (relative stereo) [Example 3L], the “ACAT % Inhibition” value with ACAT was 93%.

On to `O=C(N[C@@H]1c2ccccc2CCC[C@@H]1c1ccc(O)cc1)C(c1ccccc1)c1ccccc1` (relative stereo) [Example 3R], for which the change in vivo at 50 mg/kg in the assay on cholesteryl esters was determined as 0%.

Regarding `O=C(N[C@@H]1c2cccc(O)c2CC[C@H]1c1ccccc1)C(c1ccccc1)c1ccccc1` (relative stereo) [Example 3S], the change in vivo at 50 mg/kg in the assay with cholesteryl esters came out at 0%.

On to `O=C(N[C@@H]1c2cccc(O)c2CC[C@@H]1c1ccccc1)C(c1ccccc1)c1ccccc1` (relative stereo) [Example 3T], for which the change in vivo at 50 mg/kg in the assay on cholesteryl esters came to 0%.

Turning to `O=C(N[C@@H]1c2cc(O)ccc2CC[C@H]1c1ccc(O)cc1)C(c1ccccc1)c1ccccc1` (relative stereo) [Example 3U], the change in vivo at 10 mg/kg in the assay on cholesteryl esters (10 mpk) was -60%. The change in vivo at 30 mg/kg in the assay with cholesteryl esters (30 mpk) was -86%. In the assay on cholesteryl esters, the change in vivo at 50 mg/kg was -97%.

On to `O=C(N[C@@H]1c2cc(O)ccc2CC[C@@H]1c1ccc(O)cc1)C(c1ccccc1)c1ccccc1` (relative stereo) [Example 3V], for which the change in vivo at 50 mg/kg in the assay with cholesteryl esters is 0%.

Turning to `O=C(N[C@@H]1c2c(O)cccc2C[C@@H]1c1ccccc1)C(c1ccccc1)c1ccccc1` (relative stereo) [Example 3X], the “ACAT % Inhibition” value with ACAT amounted to 97%.

`Nc1ccc([C@@H]2Cc3ccccc3[C@H]2NC(=O)C(c2ccccc2)c2ccccc2)cc1` (relative stereo) [Example 5, trans-N-[2-(4'-aminophenyl)indanyl]-α-phenylbenzeneacetamide]: in the assay with ACAT, the “ACAT % Inhibition” value turned out to be 94%.

On to `O=C(N[C@@H]1c2ccccc2C[C@@H]1c1ccc(O)cc1)C(c1ccccc1)c1ccccc1` (single isomer, unassigned) [Example 3BB], for which, in the assay with ACAT, the “ACAT % Inhibition” value is recorded as less than 0%.

As to `O=C(N[C@@H]1c2cc(O)ccc2CC[C@H]1c1ccccc1)C(c1ccccc1)c1ccccc1` (single isomer, unassigned) [Example 3Y], the “ACAT % Inhibition” value in the assay with ACAT was 83%.

For `O=C(N[C@@H]1c2cc(O)ccc2CC[C@H]1c1ccccc1)C(c1ccccc1)c1ccccc1` (single isomer, unassigned) [Example 3Z], the “ACAT % Inhibition” value in the assay on ACAT worked out at 92%.
